# Data: patent US20150045366A1, “SPRAY DRIED FORMULATIONS” (Gilead Sciences, Inc., priority 2012, published 2015)
# Assay: Hygroscopicity: weight gain and moisture induced phase transition in humidity-controlled desiccator
# Type: physicochemical
# Experimental: Hygroscopicity of the compositions of invention were measured by placing approximately 20 to 50 mg of the sample in an uncapped scintillation vial. The vial was stored at ambient temperature in a Pyrex brand desiccator (VWR, International, West Chester, Pa.). The humidity within the desiccator was controlled at 55% relative humidity and 75% relative humidity using saturated aqueous solutions of […] and sodium chloride, respectively. The relative humidity was confirmed using a digital hygrometer pen (VWR International, West Chester, Pa.). The weight gain for all the samples was determined after 24 hours; it was not determined whether equilibrium was reached after that period. Visual observation of moisture induced phase transition was also noted.
smiles,measurement,setting,value
"CC(C)c1nc(CN(C)C(=O)N[C@@H](CCN2CCOCC2)C(=O)N[C@H](CC[C@H](Cc2ccccc2)NC(=O)OCc2cncs2)Cc2ccccc2)cs1 [Compound Free base, thiazol-5-ylmethyl (2R,5R)-5-((S)-2-(3-((2-isopropylthiazol-4-yl)methyl)-3-methylureido)-4-morpholinobutanamido)-1,6-diphenylhexan-2-ylcarbamate]",Weight gain at 55% RH,"55% relative humidity, ambient temperature, after 24 hours",1.9%
same,Weight gain at 75% RH,"75% relative humidity, ambient temperature, after 24 hours",3.7%
same,Phase transition (at 55% RH),"visual observation of moisture induced phase transition, 55% RH, 24 hours",yes
same,Phase transition (at 75% RH),"visual observation of moisture induced phase transition, 75% RH, 24 hours",yes
